Where a name gives a salt, the structure may show the parent alone.
Tests used:
[1] = system: scopolamine treated mice; experiment: object recognition task in scopolamine-treated mice; type: in vivo; details: 1 mg/kg alone
Source text: FIG. 2 illustrates the results of the effect of a co-treatment with 2-(cyclohexylmethyl)-N-{2-[(2S)-1-methylpyrrolidin-2-yl]ethyl}-1,2,3,4-tetrahydroisoquinoline-7-sulfonamide and donepezil on recognition memory deficit in scopolamine-treated mice using the object recognition task.
The results of this study are depicted in FIG. 2.

[2] = system: CD1 male mice; experiment: object recognition test in normal mice; type: in vivo; details: 3 mg/kg oral, individually
Source text: FIG. 1 illustrates the results of the effect of a co-treatment with 2-(cyclohexyl methyl)-N-{2-[(2S)-1-methyl pyrrolidin-2-yl]ethyl}-1,2,3,4-tetrahydroisoquinoline-7-sulfonamide and donepezil on recognition memory in normal mice at various delays using the object recognition task.
The results of this study are depicted in FIG. 1.

[3] = system: various rodent models; details: cited from earlier work

Structure (SMILES)	activity of the amount given alone, episodic memory deficits [1]	memory in object recognition test ([2]; 24 hours after administration)	procognitive effect in object recognition test ([2]; after 48 hours)	cognitive performances on short-term and long-term memory and attention deficits [3]
COc1cc2c(cc1OC)C(=O)C(CC1CCN(Cc3ccccc3)CC1)C2 (racemic) [donepezil hydrochloride, (±)-2,3-dihydro-5,6-dimethoxy-2-[[1-(phenylmethyl)-4-piperidinyl]methyl]-1H-inden-1-one, reference compound]	inactive	enhanced the memory	lack of procognitive effect	–
CN1CCC[C@H]1CCNS(=O)(=O)c1ccc2c(c1)CN(CC1CCCCC1)CC2 [2-(Cyclohexylmethyl)-N-{2-[(2S)-1-methylpyrrolidin-2-yl]ethyl}-1,2,3,4-tetrahydroisoquinoline-7-sulfonamide]	–	–	–	improves cognitive performances
